Entries after “also recorded” stand apart in the source; their conditions may differ.

For test [1], the system named is Sprague Dawley rats. Briefly: Rat liver hilar clamp model of IRI (segmental 70% ischemia). The class given is in vivo. The text has this: In Vitro: Primary liver cells subjected to H2O2-induced oxidative stress injury. In Vivo: Liver IRI induced in Sprague Dawley rats using a segmental (70% ischemia) hilar clamp model. Markers of liver injury including plasma ALT and AST, tissue MDA, ATP, and GSH, and histology assessed. • b) Results Hypoxic HSCs had increased CD38 expression (FIG. 11) and CD38 activity measured by fluorometric assay (FIG. 12). CD38 expression, activity, and hepatocellular injury increased with duration of ischemia in a rat hilar clamp model of IRI: Sprague-Dawley rats underwent a hilar clamp procedure to induce IRI for 30, 60, 90, 120 min of ischemia followed by 6 h reperfusion. Tissue CD38 expression was measured by Western blot (FIG. 15A), serum ALT by colorimetric assay at 0, 30, 180, 360 min post reperfusion (FIG. 15B), and CD38 activity at all ischemia time points (FIG. 15C). CD38 inhibition increases cell viability, decreases intracellular ROS formation and ET-1 production in HSCs exposed to hypoxia/oxidant stress: Primary rat HSCs were exposed to 3 h hypoxia (0% 02) and 2 h oxidant stress (H2O2). […] Rat model of marginal donor organ recapitulates the inflammatory environment of a discarded “high risk” human donor organ: Control rats have little steatosis by H&E (FIG. 18A) and mild CD38 expression by IHC (FIG. 18B). Rats fed a methionine choline deficient (MCD) diet have severe steatosis by H&E (FIG. 18C) and high CD38 expression co-localizing with GFAP positive HSCs by IHC (FIG. 18D).

In test [2] the target is T1, CD38 (Rattus norvegicus, UniProt Q64244).
T1 construct: Liver IRI induced in Sprague Dawley rats using a segmental (70% ischemia) hilar clamp model; from tissue; host or cells: rat liver (Sprague Dawley, hilar clamp ischemia/reperfusion)
T1 sequence (Q64244 1-303): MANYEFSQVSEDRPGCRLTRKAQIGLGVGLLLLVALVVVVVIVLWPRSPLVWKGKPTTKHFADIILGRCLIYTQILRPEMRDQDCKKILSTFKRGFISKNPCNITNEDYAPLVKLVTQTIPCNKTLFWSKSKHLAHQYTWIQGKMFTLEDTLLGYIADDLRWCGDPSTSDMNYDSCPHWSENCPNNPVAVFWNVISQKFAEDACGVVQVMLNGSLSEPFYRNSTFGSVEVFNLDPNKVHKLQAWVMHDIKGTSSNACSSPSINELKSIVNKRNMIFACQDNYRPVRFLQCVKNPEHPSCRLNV
Kind of test: CD38 activity during hepatic IRI. Format: in vivo. The text has this:
In Vitro: Primary liver cells subjected to H2O2-induced oxidative stress injury. In Vivo: Liver IRI induced in Sprague Dawley rats using a segmental (70% ischemia) hilar clamp model. […] Additionally, CD38 activity correlated with increased ischemic time (FIGS. 15A and 15C). However, Apigenin treatment attenuated liver IRI (FIG. 16). […] Additionally, Apigenin treatment improves tissue MAD, ATP and GSH. Lastly, Apigenin treatment preserves tissue architecture.

As to `O=c1cc(-c2ccc(O)cc2)oc2cc(O)cc(O)c12` [Apigenin], in test [1] (histology, liver IRI), the tissue architecture result was “preserves”. Besides, in test [1] (intrahepatic delivery, 1 h of ischemia and 6 h of reperfusion, FIG. 16), the “liver IRI (injury)” value is “attenuated; also recorded: protection from injury; also recorded: decreased injury”. In test [1] (liver tissue, liver IRI), the “tissue ATP” value was “improves”, the “tissue GSH” value is “improves” and the “tissue MDA (malondialdehyde)” value is reported as “improves”. In test [1] (plasma, liver IRI), the ALT result is reported as “improves” and the AST result is “improves”. The “CD38 activity during IRI” value in test [2] (FIG. 14) was “rescued”. Besides, the “CD38 activity during IRI” value in test [2] (FIG. 14, listed as Inhibitor) is reported as “decreases”.
